According to patent US20080014186A1, “Hla-A24 or Hla-A2 Binding Peptides of Parathyroid Hormone-Related Protein” (GREEN PEPTIDE CO., LTD., priority 2004, published 2008):

Columns and labels:
[1] = system: PBMCs of HLA-A24^+ healthy donors and prostate cancer patients; experiment: Assay for peptide-specific CTLs in PBMCs (IFN-γ ELISA, peptide-pulsed C1R-A24 cells); assay type: cell-based, human; conditions: for IFN-γ production: C1R-A24 cells, HIV peptide background subtracted
Procedure: To investigate the immunogenicity of these four PTHrP peptides, the PBMCs of 10 HLA-A24^+ healthy donors and 10 HLA-A24^+ prostate cancer patients were stimulated with each of the four PTHrP peptides and were examined for their IFN-γ production in response to C1R-A24 cells, which were pre-pulsed with either a corresponding PTHrP peptide or the HIV peptide. Flu- and EBV-derived peptides were used as controls.
The assay for detection of peptide-specific CTLs in PBMCs was performed according to a previously reported method. In brief, PBMCs (1 X 10^5 cells/well) were incubated with […] of each peptide in a U-bottom-type 96-well microculture plate (Nunc, Roskilde, Denmark) at a volume of 200 μl of culture medium. The culture medium consisted of 45% RPMI-1640, 45% AIM-V medium (Gibco BRL), 10% FCS, 100 U/ml of IL-2, and 0.1 mM MEM nonessential amino acid solution (Gibco, BRL). Half of the culture medium was removed and replaced with new medium containing a corresponding peptide (20 μg/ml) every 3 days. On the 15th day of culture, the cultured cells were separated into 4 wells, and two wells were used for PTHrP peptide-pulsed C1R-A24 cells, and the other two wells were used for the HIV peptide-pulsed C1R-A24 cells. After an 18-hr incubation period, the supernatants were collected, and the level of IFN-γ was determined by ELISA (limit of sensitivity: 10 pg/ml).
The assay was carried out in quadruplicate, and the mean of two wells which show the highest significance compared to the control is shown in Table 1.
It was then determined whether PBMCs stimulated by either the PTHrP 36-44 or the PTHrP 102-111 peptide could induce prostate cancer-reactive CTLs from HLA-A24^+ healthy donors and prostate cancer patients. PBMCs from HLA-A24^+ healthy donors and prostate cancer patients were repeatedly stimulated with these PTHrP peptides. On day 15, half of the cultured cells were harvested, pooled from 4 wells, and cultured with C1R-A24 cells, which were pre-pulsed with the HIV peptide (open symbol) and the indicated PTHrP peptide (closed symbol) for 18-hr. The levels of IFN-γ in the supernatants were then determined by ELISA.

[2] = system: IgG in plasma of HLA-A24^+ healthy donors and prostate cancer patients; experiment: Peptide-specific IgG in plasma by ELISA (HLA-A24-binding PTHrP peptides); design: species or system human; conditions: for IgG reactive to the peptide in plasma: 1:100-diluted plasma
Text: The inventors previously reported that IgGs reactive to CTL epitope peptides were detected in healthy donors and patients with various types of cancers. IgGs reactive to prostate-related antigens were also detected in healthy donors and prostate cancer patients. It was examined, therefore, whether IgG reactive to the four PTHrP-derived peptides, PTHrP 36-44, PTHrP 102-111, PTHrP 25-34, and PTHrP 110-119, could be detected in the plasma of cancer patients and healthy donors.
Peptide-specific IgG levels in the plasma were measured by ELISA, as previously reported. In brief, peptide (20 μg/well)-immobilized plates were blocked with Block Ace (Yukijirushi, Tokyo, Japan) and washed with 0.05% Tween20-PBS, after which 100 μl/well of plasma sample diluted with 0.05% Tween20-Block Ace was added to the plate. After 2 hours incubation at 37° C., the plates were washed and further incubated for 2 hours with a 1:1000-diluted rabbit anti-human IgG (γ-chain-specific) (DAKO, Glostrup, Denmark). The plates were washed, and then 100 μl of 1:100-diluted goat anti-rabbit IgG-conjugated horseradish peroxidase (EnVision, DAKO) was added to each well, and the plates were then incubated at room temperature for 40 min. After the plates were washed once, 100 μl/well of tetramethyl benzidine substrate solution (KPL, Guildford, UK) was added, and the reaction was stopped by the addition of 1 M phosphoric acid. The values are shown as optical density (OD) units/ml, and responses to the HIV peptide were subtracted. IgG reactive to a corresponding PTHrP peptide was judged to be positive when the difference of the OD in 1:100-diluted plasma exceeded 0.05. The results that IgG reactive to either the PTHrP102-111 or the […] peptide was detected in 8 of 10 healthy donors and in 7 of 10 prostate cancers are shown in Table 2 hereinafter.
To confirm the specificity of IgG to the indicated PTHrP peptide, 100 μl of sample plasma from either HD #1 and Pt #6 was cultured in a plate pre-coated with either a corresponding PTHrP peptide or an irrelevant PTHrP peptide. Thereafter, the levels of IgG reactive to the PTHrP 102-111 peptide or the PTHrP 110-119 peptide in the resulting supernatants were determined by ELISA.

[3] = HLA-A24^+ prostate cancer patient #1
[4] = HLA-A24^+ prostate cancer patient #2
[5] = HLA-A24^+ prostate cancer patient #3
[6] = HLA-A24^+ prostate cancer patient #4
[7] = HLA-A24^+ prostate cancer patient #5
[8] = HLA-A24^+ prostate cancer patient #6
[9] = HLA-A24^+ prostate cancer patient #7
[10] = HLA-A24^+ prostate cancer patient #8
[11] = HLA-A24^+ prostate cancer patient #9
[12] = HLA-A24^+ prostate cancer patient #10
[13] = HLA-A24^+ prostate cancer patients

KVETYKEQPL [PTHrP 110-119]
IFN-γ production ([1]; HLA-A24^+ healthy donor #1): 394 pg/mL | IFN-γ production ([1]; HLA-A24^+ healthy donor #2): 17 pg/mL | IFN-γ production ([1]; HLA-A24^+ healthy donor #3): 20 pg/mL | IFN-γ production ([1]; HLA-A24^+ healthy donor #4): 2 pg/mL | IFN-γ production ([1]; HLA-A24^+ healthy donor #5): 38 pg/mL | IFN-γ production ([1]; HLA-A24^+ healthy donor #6): 357 pg/mL | IFN-γ production ([1]; HLA-A24^+ healthy donor #7): 0 pg/mL | IFN-γ production ([1]; HLA-A24^+ healthy donor #8): 1017 pg/mL | IFN-γ production ([1]; HLA-A24^+ healthy donor #9): 61 pg/mL | IFN-γ production ([1]; HLA-A24^+ healthy donor #10): 0 pg/mL | induced peptide-specific CTLs, number of donors ([1]; HLA-A24^+ healthy donors): 3 of 10 | Total (donors with significant peptide-specific IFN-γ production / donors tested) ([1]; HLA-A24^+ healthy donors, p < 0.05): 3/10 | IFN-γ production [1, 3]: 0 pg/mL | IFN-γ production [1, 4]: 9 pg/mL | IFN-γ production [1, 5]: 38 pg/mL | IFN-γ production [1, 6]: 19 pg/mL | IFN-γ production [1, 7]: 10 pg/mL | IFN-γ production [1, 8]: 14 pg/mL | IFN-γ production [1, 9]: 0 pg/mL | IFN-γ production [1, 10]: 23 pg/mL | IFN-γ production [1, 11]: 0 pg/mL | IFN-γ production [1, 12]: 118 pg/mL | induced peptide-specific CTLs (peptide-specific IFN-γ production), number of patients [1, 13]: 1 of 10 | Total (patients with significant peptide-specific IFN-γ production / patients tested) ([1]; HLA-A24^+ prostate cancer patients, p < 0.05): 1/10 | IgG reactive to the peptide in plasma ([2]; HLA-A24^+ healthy donor #1): + (IgG reactive to a corresponding peptide was judged to be positive when the difference of the OD in 1:100-diluted plasma exceeded 0.05.) | IgG reactive to the peptide in plasma ([2]; HLA-A24^+ healthy donor #2): + (IgG reactive to a corresponding peptide was judged to be positive when the difference of the OD in 1:100-diluted plasma exceeded 0.05.) | IgG reactive to the peptide in plasma ([2]; HLA-A24^+ healthy donor #3): + (IgG reactive to a corresponding peptide was judged to be positive when the difference of the OD in 1:100-diluted plasma exceeded 0.05.) | IgG reactive to the peptide in plasma ([2]; HLA-A24^+ healthy donor #4): − (IgG reactive to a corresponding peptide was judged to be positive when the difference of the OD in 1:100-diluted plasma exceeded 0.05.) | IgG reactive to the peptide in plasma ([2]; HLA-A24^+ healthy donor #5): + (IgG reactive to a corresponding peptide was judged to be positive when the difference of the OD in 1:100-diluted plasma exceeded 0.05.) | IgG reactive to the peptide in plasma ([2]; HLA-A24^+ healthy donor #6): − (IgG reactive to a corresponding peptide was judged to be positive when the difference of the OD in 1:100-diluted plasma exceeded 0.05.) | IgG reactive to the peptide in plasma ([2]; HLA-A24^+ healthy donor #7): + (IgG reactive to a corresponding peptide was judged to be positive when the difference of the OD in 1:100-diluted plasma exceeded 0.05.) | IgG reactive to the peptide in plasma ([2]; HLA-A24^+ healthy donor #8): + (IgG reactive to a corresponding peptide was judged to be positive when the difference of the OD in 1:100-diluted plasma exceeded 0.05.) | IgG reactive to the peptide in plasma ([2]; HLA-A24^+ healthy donor #9): + (IgG reactive to a corresponding peptide was judged to be positive when the difference of the OD in 1:100-diluted plasma exceeded 0.05.) | IgG reactive to the peptide in plasma ([2]; HLA-A24^+ healthy donor #10): + (IgG reactive to a corresponding peptide was judged to be positive when the difference of the OD in 1:100-diluted plasma exceeded 0.05.) | IgG reactive to the peptide detected, number of donors ([2]; HLA-A24^+ healthy donors): 8 of 10 | Total (IgG-positive donors / donors tested) ([2]; HLA-A24^+ healthy donors): 8/10 | IgG reactive to the peptide in plasma [2, 3]: + (IgG reactive to a corresponding peptide was judged to be positive when the difference of the OD in 1:100-diluted plasma exceeded 0.05.) | IgG reactive to the peptide in plasma [2, 4]: + (IgG reactive to a corresponding peptide was judged to be positive when the difference of the OD in 1:100-diluted plasma exceeded 0.05.) | IgG reactive to the peptide in plasma [2, 5]: − (IgG reactive to a corresponding peptide was judged to be positive when the difference of the OD in 1:100-diluted plasma exceeded 0.05.) | IgG reactive to the peptide in plasma [2, 6]: − (IgG reactive to a corresponding peptide was judged to be positive when the difference of the OD in 1:100-diluted plasma exceeded 0.05.) | IgG reactive to the peptide in plasma [2, 7]: − (IgG reactive to a corresponding peptide was judged to be positive when the difference of the OD in 1:100-diluted plasma exceeded 0.05.) | IgG reactive to the peptide in plasma [2, 8]: + (IgG reactive to a corresponding peptide was judged to be positive when the difference of the OD in 1:100-diluted plasma exceeded 0.05.) | IgG reactive to the peptide in plasma [2, 9]: + (IgG reactive to a corresponding peptide was judged to be positive when the difference of the OD in 1:100-diluted plasma exceeded 0.05.) | IgG reactive to the peptide in plasma [2, 10]: + (IgG reactive to a corresponding peptide was judged to be positive when the difference of the OD in 1:100-diluted plasma exceeded 0.05.) | IgG reactive to the peptide in plasma [2, 11]: + (IgG reactive to a corresponding peptide was judged to be positive when the difference of the OD in 1:100-diluted plasma exceeded 0.05.) | IgG reactive to the peptide in plasma [2, 12]: + (IgG reactive to a corresponding peptide was judged to be positive when the difference of the OD in 1:100-diluted plasma exceeded 0.05.) | IgG reactive to the peptide detected, number of patients [2, 13]: 7 of 10 | Total (IgG-positive patients / patients tested) [2, 13]: 7/10 | Peptide-specific absorption of IgG (level after culturing plasma in corresponding peptide-coated wells) ([2]; plasma from HD #1 and Pt #6, FIG. 3B): significantly diminished
